Key:
Type in all cases: cell-based
Mino cells = experiment: Antiproliferative effect, MTS cell viability assay, Mino cells; details: Homo sapiens, MINO, Mino mantle cell lymphoma cells; read-out: IC50 (anti-proliferation) Mino cells
Method in brief: (§1)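 Readout was MTS-derived formazan absorbance (490 nm) reflecting metabolically active cells. Treatment lasted 72 h over a 0–10 μM range (0.001, 0.01, 0.1, 1, 10 μM) in JeKo-1 and Mino B-cell malignancy cells.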

JeKo-1 cells = experiment: Antiproliferative effect, MTS cell viability assay, JeKo-1 cells; details: Homo sapiens; JeKo-1 mantle cell lymphoma cells; read-out: IC50 (anti-proliferation) JeKO-1 cells
Method in brief: as §1

BTK = BTK (Homo sapiens, UniProt Q06187); experiment: BTK degradation, DC50 and Dmax of Table 1 (cell line not given); design: endogenous in cells; details: for DC50: concentration giving 50% reduction of BTK expression level
Chain of BTK (Q06187 whole entry): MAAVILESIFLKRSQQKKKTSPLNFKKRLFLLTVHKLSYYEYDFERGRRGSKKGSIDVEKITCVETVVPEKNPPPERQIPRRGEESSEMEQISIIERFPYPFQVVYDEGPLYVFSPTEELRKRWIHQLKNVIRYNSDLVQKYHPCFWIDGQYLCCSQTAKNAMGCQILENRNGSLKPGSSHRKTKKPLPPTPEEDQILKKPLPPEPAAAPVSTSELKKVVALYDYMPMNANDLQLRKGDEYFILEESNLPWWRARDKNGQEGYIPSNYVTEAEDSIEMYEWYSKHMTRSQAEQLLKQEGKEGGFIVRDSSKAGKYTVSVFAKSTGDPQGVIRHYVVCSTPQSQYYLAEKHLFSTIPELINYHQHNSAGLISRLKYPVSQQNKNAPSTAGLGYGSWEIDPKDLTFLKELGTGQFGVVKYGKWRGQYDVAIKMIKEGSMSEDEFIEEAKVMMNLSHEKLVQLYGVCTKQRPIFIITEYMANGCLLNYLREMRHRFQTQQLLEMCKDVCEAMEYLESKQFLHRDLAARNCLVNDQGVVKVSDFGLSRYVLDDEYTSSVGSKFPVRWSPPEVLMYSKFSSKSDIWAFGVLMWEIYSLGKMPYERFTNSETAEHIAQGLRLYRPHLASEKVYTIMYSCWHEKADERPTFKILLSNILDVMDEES

Dmax (BTK) [%] | DC50 (BTK) [nM] | SMILES | IC50 (Mino cells) [nM] | IC50 (JeKo-1 cells) [nM]
> 90 | < 10 | Nc1ncnc2c1c(-c1ccc(Oc3ccccc3)cc1)nn2[C@@H]1CCCN(C(=O)N2CCC(CCC3CCN(c4ccc5c(c4)CN(C4CCC(=O)NC4=O)C5=O)CC3)CC2)C1 (stereo partly drawn) [Compound 72, 3-(5-(4-(2-(1-((R)-3-(4-amino-3-(4-phenoxyphenyl)-1H-pyrazolo[3,4-d]pyrimidin-1-yl)piperidine-1-carbonyl)piperidin-4-yl)ethyl)piperidin-1-yl)-1-oxoisoindolin-2-yl)piperidine-2,6-dione] | 1000 to 10000 | 1000 to 10000
> 90 | 10 to 50 | Nc1ncnc2c1c(-c1ccc(Oc3ccccc3)cc1)nn2[C@@H]1CCCN(C2CCN(C(=O)N3CCN(CC4CCN(c5ccc6c(c5)CN(C5CCC(=O)NC5=O)C6=O)CC4)CC3)CC2)C1 (stereo partly drawn) [Compound 172, 3-(5-(4-((4-((R)-3-(4-amino-3-(4-phenoxyphenyl)-1H-pyrazolo[3,4-d]pyrimidin-1-yl)-[1,4′-bipiperidine]-1′-carbonyl)piperazin-1-yl)methyl)piperidin-1-yl)-1-oxoisoindolin-2-yl)piperidine-2,6-dione] | 1000 to 10000 | 1000 to 10000
> 90 | < 10 | Nc1ncnc2c1c(-c1ccc(Oc3ccccc3)cc1)nn2[C@@H]1CCCN(C(=O)N2CCC(CCN3CCN(c4ccc5c(c4)CN(C4CCC(=O)NC4=O)C5=O)CC3)CC2)C1 (stereo partly drawn) [Compound 64, 3-(5-(4-(2-(1-((R)-3-(4-amino-3-(4-phenoxyphenyl)-1H-pyrazolo[3,4-d]pyrimidin-1-yl)piperidine-1-carbonyl)piperidin-4-yl)ethyl)piperazin-1-yl)-1-oxoisoindolin-2-yl)piperidine-2,6-dione] | < 1000 | 1000 to 10000
> 90 | 10 to 50 | Nc1ncnc2c1c(-c1ccc(Oc3ccccc3)cc1)nn2C1CCN(CCOCCN2CCN(c3ccc4c(c3)C(=O)N(C3CCC(=O)NC3=O)C4=O)CC2)CC1 (stereo not drawn) [Compound 5, 5-(4-(2-(2-(4-(4-amino-3-(4-phenoxyphenyl)-1H-pyrazolo[3,4-d]pyrimidin-1-yl)piperidin-1-yl)ethoxy)ethyl)piperazin-1-yl)-2-(2,6-dioxopiperidin-3-yl)isoindoline-1,3-dione] | 1000 to 10000 | 1000 to 10000
> 75 | > 50 | Nc1ncnc2c1c(-c1ccc(Oc3ccccc3)cc1)nn2[C@@H]1CCCN(C(=O)N2CCC(CCCC3CCN(c4ccc5c(c4)CN(C4CCC(=O)NC4=O)C5=O)CC3)CC2)C1 (stereo partly drawn) [Compound 114] | 1000 to 10000 | 1000 to 10000
> 75 | > 50 | Nc1ncnc2c1c(-c1ccc(Oc3ccccc3)cc1)nn2[C@@H]1CCCN(C(=O)N2CCN(CCCN3CCC(c4ccc5c(c4)C(=O)N(C4CCC(=O)NC4=O)C5=O)CC3)CC2)C1 (stereo partly drawn) [Compound 111, 5-(1-(3-(4-((R)-3-(4-amino-3-(4-phenoxyphenyl)-1H-pyrazolo[3,4-d]pyrimidin-1-yl)piperidine-1-carbonyl)piperazin-1-yl)propyl)piperidin-4-yl)-2-(2,6-dioxopiperidin-3-yl)isoindoline-1,3-dione] | 1000 to 10000 | 1000 to 10000
> 50 | > 50 | Nc1ncnc2c1c(-c1ccc(Oc3ccccc3)cc1)nn2[C@@H]1CCCN(C2CCN(CCCC3CCN(c4ccc5c(c4)CN(C4CCC(=O)NC4=O)C5=O)CC3)CC2)C1 (stereo partly drawn) [Compound 156, 3-(5-(4-(3-((R)-3-(4-amino-3-(4-phenoxyphenyl)-1H-pyrazolo[3,4-d]pyrimidin-1-yl)-[1,4′-bipiperidin]-1′-yl)propyl)piperidin-1-yl)-1-oxoisoindolin-2-yl)piperidine-2,6-dione] | > 10000 | > 10000
> 75 | > 50 | Nc1ncnc2c1c(-c1ccc(Oc3ccccc3)cc1)nn2[C@@H]1CCCN(C2CCN(C(=O)N3CCN(CCCC4CCN(c5ccc6c(c5)C(=O)N(C5CCC(=O)NC5=O)C6=O)CC4)CC3)CC2)C1 (stereo partly drawn) [Compound 189, 5-(4-(3-(4-((R)-3-(4-amino-3-(4-phenoxyphenyl)-1H-pyrazolo[3,4-d]pyrimidin-1-yl)-[1,4′-bipiperidine]-1′-carbonyl)piperazin-1-yl)propyl)piperidin-1-yl)-2-(2,6-dioxopiperidin-3-yl)isoindoline-1,3-dione] | 1000 to 10000 | > 10000
> 75 | > 50 | Nc1ncnc2c1c(-c1ccc(Oc3ccccc3)cc1)nn2[C@@H]1CCCN(C(=O)N2CCC(CCCN3CCN(c4ccc5c(c4)C(=O)N(C4CCC(=O)NC4=O)C5=O)CC3)CC2)C1 (stereo partly drawn) [Compound 105, 5-(4-(3-(1-((R)-3-(4-amino-3-(4-phenoxyphenyl)-1H-pyrazolo[3,4-d]pyrimidin-1-yl)piperidine-1-carbonyl)piperidin-4-yl)propyl)piperazin-1-yl)-2-(2,6-dioxopiperidin-3-yl)isoindoline-1,3-dione] | > 10000 | > 10000
> 75 | > 50 | Nc1ncnc2c1c(-c1ccc(Oc3ccccc3)cc1)nn2[C@@H]1CCCN(C(=O)N2CCC(CCCN3CCC(c4ccc5c(c4)C(=O)N(C4CCC(=O)NC4=O)C5=O)CC3)CC2)C1 (stereo partly drawn) [Compound 115, 5-(1-(3-(1-((R)-3-(4-amino-3-(4-phenoxyphenyl)-1H-pyrazolo[3,4-d]pyrimidin-1-yl)piperidine-1-carbonyl)piperidin-4-yl)propyl)piperidin-4-yl)-2-(2,6-dioxopiperidin-3-yl)isoindoline-1,3-dione] | 1000 to 10000 | > 10000
> 75 | 10 to 50 | Nc1ncnc2c1c(-c1ccc(Oc3ccccc3)cc1)nn2[C@@H]1CCCN(CC2CCN(CCC3CCN(c4ccc5c(c4)C(=O)N(C4CCC(=O)NC4=O)C5=O)CC3)CC2)C1 (stereo partly drawn) [Compound 131] | 1000 to 10000 | 1000 to 10000
> 90 | 10 to 50 | Nc1ncnc2c1c(-c1ccc(Oc3ccccc3)cc1)nn2[C@@H]1CCCN(C2CCN(C(=O)N3CCC(CC4CCN(c5ccc6c(c5)C(=O)N(C5CCC(=O)NC5=O)C6=O)CC4)CC3)CC2)C1 (stereo partly drawn) [Compound 167, 5-(4-((1-((R)-3-(4-amino-3-(4-phenoxyphenyl)-1H-pyrazolo[3,4-d]pyrimidin-1-yl)-[1,4′-bipiperidine]-1′-carbonyl)piperidin-4-yl)methyl)piperidin-1-yl)-2-(2,6-dioxopiperidin-3-yl)isoindoline-1,3-dione] | 1000 to 10000 | 1000 to 10000
> 50 | > 50 | Nc1ncnc2c1c(-c1ccc(Oc3ccccc3)cc1)nn2[C@@H]1CCCN(C2CCN(C(=O)N3CCC(c4ccc5c(c4)CN(C4CCC(=O)NC4=O)C5=O)CC3)CC2)C1 (stereo partly drawn) [Compound 158, 3-(5-(1-((R)-3-(4-amino-3-(4-phenoxyphenyl)-1H-pyrazolo[3,4-d]pyrimidin-1-yl)-[1,4′-bipiperidine]-1′-carbonyl)piperidin-4-yl)-1-oxoisoindolin-2-yl)piperidine-2,6-dione] | > 10000 | > 10000
> 90 | 10 to 50 | Nc1ncnc2c1c(-c1ccc(Oc3ccccc3)cc1)nn2C1CCN(C(=O)N2CCC(CCC3CCN(c4ccc5c(c4)CN(C4CCC(=O)NC4=O)C5=O)CC3)CC2)CC1 (stereo not drawn) [Compound 102, 3-(5-(4-(2-(1-(4-(4-amino-3-(4-phenoxyphenyl)-1H-pyrazolo[3,4-d]pyrimidin-1-yl)piperidine-1-carbonyl)piperidin-4-yl)ethyl)piperidin-1-yl)-1-oxoisoindolin-2-yl)piperidine-2,6-dione] | 1000 to 10000 | > 10000
> 90 | > 50 | Nc1ncnc2c1c(-c1ccc(Oc3ccccc3)cc1)nn2C1CCN(C(=O)N2CCC(CCCN3CCC(c4ccc5c(c4)C(=O)N(C4CCC(=O)NC4=O)C5=O)CC3)CC2)CC1 (stereo not drawn) [Compound 127, 5-(1-(3-(1-(4-(4-amino-3-(4-phenoxyphenyl)-1H-pyrazolo[3,4-d]pyrimidin-1-yl)piperidine-1-carbonyl)piperidin-4-yl)propyl)piperidin-4-yl)-2-(2,6-dioxopiperidin-3-yl)isoindoline-1,3-dione] | 1000 to 10000 | > 10000
> 50 | > 50 | Nc1ncnc2c1c(-c1ccc(Oc3ccccc3)cc1)nn2C1CCN(C(=O)N2CCC(c3ccc4c(c3)C(=O)N(C3CCC(=O)NC3=O)C4=O)CC2)CC1 (stereo not drawn) [Compound 77, 5-(1-(4-(4-amino-3-(4-phenoxyphenyl)-1H-pyrazolo[3,4-d]pyrimidin-1-yl)piperidine-1-carbonyl)piperidin-4-yl)-2-(2,6-dioxopiperidin-3-yl)isoindoline-1,3-dione] | > 10000 | > 10000
> 90 | 10 to 50 | Nc1ncnc2c1c(-c1ccc(Oc3ccccc3)cc1)nn2[C@@H]1CCCN(CC2CCN(CCC3CCN(c4ccc5c(c4)CN(C4CCC(=O)NC4=O)C5=O)CC3)CC2)C1 (stereo partly drawn) [Compound 132, 3-(5-(4-(2-(4-(((R)-3-(4-amino-3-(4-phenoxyphenyl)-1H-pyrazolo[3,4-d]pyrimidin-1-yl)piperidin-1-yl)methyl)piperidin-1-yl)ethyl)piperidin-1-yl)-1-oxoisoindolin-2-yl)piperidine-2,6-dione] | 1000 to 10000 | 1000 to 10000
> 75 | > 50 | Nc1ncnc2c1c(-c1ccc(Oc3ccccc3)cc1)nn2[C@@H]1CCCN(C(=O)N2CCC(CCCC3CCN(c4ccc5c(c4)C(=O)N(C4CCC(=O)NC4=O)C5=O)CC3)CC2)C1 (stereo partly drawn) [Compound 113, 5-(4-(3-(1-((R)-3-(4-amino-3-(4-phenoxyphenyl)-1H-pyrazolo[3,4-d]pyrimidin-1-yl)piperidine-1-carbonyl)piperidin-4-yl)propyl)piperidin-1-yl)-2-(2,6-dioxopiperidin-3-yl)isoindoline-1,3-dione] | 1000 to 10000 | > 10000
